# Measured values taken from patent publication EP0418990A2, “13-Bromo and 13,14-dibromo ergoline, their preparation and their use” (SCHERING AKTIENGESELLSCHAFT, priority 1989, dated 1991).
# Tested on: Ratten
# Assay: Automatic recording of stereotypies in rats (Horowski method), dopamine-agonist effect
# Assay type: in vivo, männliche Wistar-Ratten
# Conditions: 60 min after treatment
# Excerpt: Die dopaminagonistische Wirkung wurde mit Hilfe der von Horowski beschriebenen Methode der automatischen Registrierung von Stereotypien an Ratten bestimmt (Arzneim. Forsch. 12, 2281-2286, 1978): Unmittelbar nach intraperitonealer Prüfsubstanz- bzw. Vehikelverabreichung werden männliche Wistar-Ratten (90-120 g) einzeln in Zwangskäfige aus Acrylglas gesetzt. Über ein vor dem Kopf der Tiere angebrachtes elektrodynamisches Aufnahmesystem wird die Zahl der Kontakte an einem stählernen Becher mit einem zentralen Metallstab als Folge der stereotypen Kau-, Leck- und Nagebewegungen während 60 Minuten registriert. Die Mittelwerte ± S.E.M. der Anzahl der Kontakte während 60 Minuten für die verschiedenen Behandlungsgruppen, die mit jeweils 12 Tieren besetzt sind, werden berechnet und die Signifikanz der Unterschiede zwischen den Mittelwerten der verschiedenen Prüfsubstanzdosen im Vergleich zur Vehikel-behandelten Kontrollgruppe mit Hilfe der einfachen Varianzanalyse in Verbindung mit dem Dunnett-Test ermittelt.
compound,measurement,setting,value
"CCN(CC)C(=O)N[C@H]1C[C@@H]2c3cc(Br)cc4[nH]c(C)c(c34)C[C@H]2N(CC)C1 [CH2CH3, 3-(13-Brom-6-ethyl-2-methyl-8α-ergolinyl)-1,1-diethyl-harnstoff]",Stereotypien(counts pro 60 Minuten) (Mittelwert ± S.E.M.),"dose 0.025 mg/kg intraperitoneal, n=12, vehicle control 2137 ± 849",1943 ± 472 counts pro 60 Minuten
same,Stereotypien(counts pro 60 Minuten) (Mittelwert ± S.E.M.),"dose 0.1 mg/kg intraperitoneal, n=12, vehicle control 2137 ± 849",2470 ± 548 counts pro 60 Minuten
same,Stereotypien(counts pro 60 Minuten) (Mittelwert ± S.E.M.),"dose 0.39 mg/kg intraperitoneal, n=12, xx: p<0.01 vs. control, vehicle control 2137 ± 849",7499 ± 1342xx counts pro 60 Minuten
same,Stereotypien(counts pro 60 Minuten) (Mittelwert ± S.E.M.),"dose 1.56 mg/kg intraperitoneal, n=12, xx: p<0.01 vs. control, vehicle control 2137 ± 849",8066 ± 1248xx counts pro 60 Minuten
same,Stereotypien(counts pro 60 Minuten) (Mittelwert ± S.E.M.),"dose 6.25 mg/kg intraperitoneal, n=12, xx: p<0.01 vs. control, vehicle control 2137 ± 849",7381 ±1336xx counts pro 60 Minuten
